Activity calls are given as the source filed them. The calls are words filed in the database; no cut-off is given here.
Columns and labels:
[1] = tested on: U-251; test: Cytotoxicity against human U251 assessed as cell growth at 10 uM after 48 hrs by SRB assay; type: functional; conditions: U-251, 48 h, read-out: Activity
[2] = tested on: COLO 205; test: Cytotoxicity against human COLO205 assessed as cell growth at 10 uM after 48 hrs by SRB assay; type: functional; conditions: COLO 205, 48 h, read-out: Activity
[3] = tested on: OVCAR-3; test: Cytotoxicity against human OVCAR3 assessed as cell growth at 10 uM after 48 hrs by SRB assay; type: functional; conditions: OVCAR-3, 48 h, read-out: Activity
[4] = tested on: PC-3; test: Cytotoxicity against human PC3 assessed as cell growth at 10 uM after 48 hrs by SRB assay; type: functional; conditions: PC-3, 48 h, read-out: Activity
[5] = tested on: OVCAR-8; test: Cytotoxicity against human OVCAR8 assessed as cell growth at 10 uM after 48 hrs by SRB assay; type: functional; conditions: OVCAR-8, 48 h, read-out: Activity
[6] = tested on: MDA-MB-468; test: Cytotoxicity against human MDA-MB-468 assessed as cell growth at 10 uM after 48 hrs by SRB assay; type: functional; conditions: MDA-MB-468, 48 h, read-out: Activity
[7] = tested on: Kluyveromyces marxianus; test: Antifungal activity against Kluyveromyces marxianus at 10 mg/ml after 48 hrs by disc diffusion method; type: functional, organism-based
[8] = tested on: Klebsiella aerogenes; test: Antibacterial activity against Enterobacter aerogenes at 10 mg/ml after 24 hrs by disc diffusion method; type: functional, organism-based
[9] = tested on: Staphylococcus aureus; test: Antibacterial activity against Staphylococcus aureus at 10 mg/ml after 24 hrs by disc diffusion method; type: functional
[10] = tested on: MCF7; test: Cytotoxicity against human MCF7 assessed as cell growth at 10 uM after 48 hrs by SRB assay; type: functional; conditions: MCF7, 48 h, read-out: Activity
[11] = tested on: TK-10; test: Cytotoxicity against human TK10 assessed as cell growth at 10 uM after 48 hrs by SRB assay; type: functional; conditions: TK-10, 48 h, read-out: Activity
[12] = tested on: Klebsiella aerogenes; test: Antibacterial activity against Enterobacter aerogenes at 6.25 to 200 ug/ml after 24 hrs by microwell dilution method; type: functional, organism-based
[13] = tested on: NCI-H460; test: Cytotoxicity against human NCI-H460 assessed as cell growth at 10 uM after 48 hrs by SRB assay; type: functional; conditions: NCI-H460, 48 h, read-out: Activity
[14] = tested on: SK-MEL-28; test: Cytotoxicity against human SK-MEL-28 assessed as cell growth at 10 uM after 48 hrs by SRB assay; type: functional; conditions: SK-MEL-28, 48 h, read-out: Activity
[15] = tested on: RPMI-8226; test: Cytotoxicity against human RPMI8226 assessed as cell growth at 10 uM after 48 hrs by SRB assay; type: functional; conditions: RPMI-8226, 48 h, read-out: Activity
[16] = tested on: Malme-3M; test: Cytotoxicity against human MALME-3M assessed as cell growth at 10 uM after 48 hrs by SRB assay; type: functional; conditions: read-out: Activity
[17] = tested on: HL-60(TB); test: Cytotoxicity against human HL-60(TB) assessed as cell growth at 10 uM after 48 hrs by SRB assay; type: functional; conditions: HL-60, 48 h, read-out: Activity
[18] = tested on: ACHN; test: Cytotoxicity against human ACHN assessed as cell growth at 10 uM after 48 hrs by SRB assay; type: functional; conditions: read-out: Activity
[19] = tested on: Staphylococcus aureus; test: Antibacterial activity against Staphylococcus aureus at 6.25 to 200 ug/ml after 24 hrs by microwell dilution assay; type: functional, organism-based
[20] = tested on: SK-MEL-2; test: Cytotoxicity against human SK-MEL-2 assessed as cell growth at 10 uM after 48 hrs by SRB assay; type: functional; conditions: SK-MEL-2, 48 h, read-out: Activity
[21] = tested on: Candida albicans; test: Antifungal activity against Candida albicans at 10 mg/ml after 48 hrs by disc diffusion method; type: functional, organism-based
[22] = tested on: NCI-H522; test: Cytotoxicity against human NCI-H522 assessed as cell growth at 10 uM after 48 hrs by SRB assay; type: functional; conditions: NCI-H522, 48 h, read-out: Activity
[23] = tested on: A498; test: Cytotoxicity against human A498 assessed as cell growth at 10 uM after 48 hrs by SRB assay; type: functional; conditions: A498, 48 h, read-out: Activity
[24] = tested on: Candida parapsilosis; test: Antifungal activity against Candida parapsilosis at 10 mg/ml after 48 hrs by disc diffusion method; type: functional, organism-based
[25] = tested on: OVCAR-4; test: Cytotoxicity against human OVCAR4 assessed as cell growth at 10 uM after 48 hrs by SRB assay; type: functional; conditions: OVCAR-4, 48 h, read-out: Activity
[26] = tested on: Photorhabdus luminescens; test: Antibacterial activity against Photorhabdus luminescens at 10 mg/ml after 24 hrs by disc diffusion method; type: functional, organism-based
[27] = tested on: MDA-MB-231; test: Cytotoxicity against human MDA-MB-231 assessed as cell growth at 10 uM after 48 hrs by SRB assay; type: functional; conditions: MDA-MB-231, 48 h, read-out: Activity
[28] = tested on: RXF 393; test: Cytotoxicity against human RXF393 assessed as cell growth at 10 uM after 48 hrs by SRB assay; type: functional; conditions: RXF 393, 48 h, read-out: Activity
[29] = tested on: SF-539; test: Cytotoxicity against human SF539 assessed as cell growth at 10 uM after 48 hrs by SRB assay; type: functional; conditions: SF-539, 48 h, read-out: Activity
[30] = tested on: Pichia membranifaciens; test: Antifungal activity against Pichia membranifaciens at 10 mg/ml after 48 hrs by disc diffusion method; type: functional, organism-based
[31] = tested on: Hs-578T; test: Cytotoxicity against human Hs 578T assessed as cell growth at 10 uM after 48 hrs by SRB assay; type: functional; conditions: read-out: Activity
[32] = tested on: Micrococcus lylae; test: Antibacterial activity against Micrococcus lylae at 10 mg/ml after 24 hrs by disc diffusion method; type: functional, organism-based
[33] = tested on: Staphylococcus cohnii; test: Antibacterial activity against Staphylococcus cohnii at 10 mg/ml after 24 hrs by disc diffusion method; type: functional
[34] = tested on: K562; test: Cytotoxicity against human K562 assessed as cell growth at 10 uM after 48 hrs by SRB assay; type: functional; conditions: K562, 48 h, read-out: Activity
[35] = tested on: UACC-257; test: Cytotoxicity against human UACC257 assessed as cell growth at 10 uM after 48 hrs by SRB assay; type: functional; conditions: UACC-257, 48 h, read-out: Activity
[36] = tested on: CCRF-CEM; test: Cytotoxicity against human CCRF-CEM assessed as cell growth at 10 uM after 48 hrs by SRB assay; type: functional; conditions: read-out: Activity
[37] = tested on: KM12; test: Cytotoxicity against human KM12 assessed as cell growth at 10 uM after 48 hrs by SRB assay; type: functional; conditions: KM12, 48 h, read-out: Activity
[38] = tested on: HCT-116; test: Cytotoxicity against human HCT116 assessed as cell growth at 10 uM after 48 hrs by SRB assay; type: functional; conditions: HCT-116, 48 h, read-out: Activity
[39] = Cytotoxicity against human NCI-ADR-RES assessed as cell growth at 10 uM after 48 hrs by SRB assay; type: functional; conditions: read-out: Activity
[40] = tested on: LOX IMVI; test: Cytotoxicity against human LOXIMVI assessed as cell growth at 10 uM after 48 hrs by SRB assay; type: functional; conditions: read-out: Activity
[41] = tested on: Aspergillus; test: Antifungal activity against Aspergillus at 10 mg/ml after 72 hrs by disc diffusion method; type: functional, organism-based
[42] = tested on: SK-MEL-5; test: Cytotoxicity against human SK-MEL-5 assessed as cell growth at 10 uM after 48 hrs by SRB assay; type: functional; conditions: SK-MEL-5, 48 h, read-out: Activity

CC(C(=O)NN1C(=O)CSC1c1ccc(C(F)(F)F)cc1)c1ccc(-c2ccccc2)c(F)c1 (configuration not stated) showed a growth at 10 µM [1] of 65.2%, a growth at 10 µM [2] of 108% and a growth at 10 µM [3] of 64.3%. It also gave a growth at 10 µM [4] of 37.5%, a growth at 10 µM [5] of 86.5% and a growth at 10 µM [6] of 59.4%. For the same molecule, the Activity [7] was “inactive”, the Activity [8] was “inactive” and the Activity [9] was “inactive”. The growth at 10 µM [10] was 43%, the growth at 10 µM [11] was 99.5% and the Activity [12] was “inactive”. For the same molecule, the growth at 10 µM [13] was 40.5%, the growth at 10 µM [14] was 99.9% and the growth at 10 µM [15] was 43.3%. For the same molecule, the growth at 10 µM [16] was 63%, the growth at 10 µM [17] was 36.9% and the growth at 10 µM [18] was 59.6%. For the same molecule, the Activity [19] was “inactive”, the growth at 10 µM [20] was 88.4% and the Activity [21] was “inactive”. For the same molecule, the growth at 10 µM [22] was 79.5%, the growth at 10 µM [23] was 56.8% and the Activity [24] was “inactive”. The growth at 10 µM [25] was 58.6%, the Activity [26] was “inactive” and the growth at 10 µM [27] was 70.1%. The growth at 10 µM [28] was 72.5%, the growth at 10 µM [29] was 63% and the Activity [30] was “inactive”. For the same molecule, the growth at 10 µM [31] was 54.2%, the Activity [32] was “inactive” and the Activity [33] was “inactive”. The growth at 10 µM [34] was 39.5%, the growth at 10 µM [35] was 94.4% and the growth at 10 µM [36] was 74.7%. For the same molecule, the growth at 10 µM [37] was 46.2%, the growth at 10 µM [38] was 45.5% and the growth at 10 µM [39] was 86.5%. For the same molecule, the growth at 10 µM [40] was 74.5%, the Activity [41] was “inactive” and the growth at 10 µM [42] was 81.8%.
